Tests used:
heart [1] = test: Effect on heart chronotropy and inotropy of a conscious dog; details: for Enddiastolic volume / Mean arterial blood pressure / Peak aortic flow / Stroke volume / Mean ejection rate / Max. dF/dt: change i.v. at heart frequency +10 beats/min, interpolated, paced; for Enddiastolic volume: calculated from left ventricle diameter; for Stroke volume: methyl scopolamine pretreated; for Mean ejection rate: stroke volume / ejection time; for side effects: I and II 10 and 20 μg/kg; for Max. dF/dt: maximum flow acceleration in aorta
Description: During anesthesia a catheter was introduced in the aorta, an electromagnetic flow probe was placed around the ascending aorta, and induction coils were placed diametrically on the inside of the left ventricle. The experiments were started about 2 weeks after the incision, when the dog had recovered completely.
When the dog was resting, the arterial blood pressure, the flow in the aorta, the maximum flow acceleration in the aorta (maximum dF/dt), heart frequency, the diameter of the left ventricle, and ECG were registered. The effects of compounds I and II were registered at 10, 20, and 30 minutes after administration. […] The compounds were given intravenously in the following doses. […] In order to eliminate vagal influence on the heart the dog was pretreated with methyl scopolamine 0.012 mg/kg bodyweight intramuscularily 20 minutes before the administration of the compounds. From the data giving the diameter of the left ventricle, the end diastolic volume was calculated according to E. W. Hawthorne. Mean ejection rate (ml/sec.) was calculated by dividing the stroke volume with the ejection time. […] The values given are the percentage changes after administration when the heart frequency has increased 10 beats per minute, values interpolated. […] In order to compare the inotropic effects of ouabain with those of the other compounds, the heart was stimulated in these experiments by electric pacing to a frequency which was 10 beats/minute above that registered before administration.
In order to investigate the absorption and duration of the effect, compounds I and II were given orally in an amount of 100 μg/kg bodyweight.

heart [2] = test: Effect on heart contractility (maximum dP/dt) of the anesthetized dog; type: in vivo
Description: (§1) Effects of Compound I and Ouabain On the Heart Contractility and Rhythmicity of the Anesthetized Dog
(§2) The object of the test was to compare compound I and oubain administered alone and in combination with each other to study the inotropic effect (maximum dP/dt in the left ventricle) and a possibly arrhythmic effect. The latter included an investigation of the ability of the compounds to cause repetitive ventricular response (RVR) when the heart was electrically stimulated via an electrode on the ventricle at the electrically vulnerable phase at the end of the T-wave. Klein et al. (M. Klein, N. S. Nejad, B. Lown, F. Hagemeijer and I. Blair, Circulation Research, 29, 635 (1971)) have shown that digitalis caused RVR at a dose which was about 70% of the dose giving spontaneous ventricular arrhythmias.
(§3) The dog was anesthetized with Mebumal® 30 mg/kg bodyweight i.v. Artificial respiration was applied. The sinus-node was electrocoagulated and the heart frequency was kept constant at 180 beats/minute in each test by electrical pacing of the auricle. Mean arterial blood pressure was registered from the carotis artery. ECG was registered during the test. Further, the pressure in the left ventricle was registered via a catheter inserted through the apex and connected to a pressure transducer. The intraventricular pressure curve was derivated to obtain maximum dP/dt which is a measure of the contractile force of the heart.
(§4) The test was started with a series of control registrations, whereupon the compounds were administered 3 times by infusion during five minutes and with an interval of 50 minutes between each infusion.
(§5) In the experiment with compound I only, the compound was administered in two doses of 10 μg/kg bodyweight and then one dose of 20 μg/kg bodyweight. Ouabain was given in 3 consecutive doses of 20 μg/kg bodyweight. In the combination test ouabain was first given in a dose of 20 μg/kg bodyweight followed by two doses of compound I of 10 and 20 μg/kg bodyweight, respectively.

heart [3] = test: Repetitive ventricular response (RVR) / spontaneous arrhythmia in the anesthetized dog; type: in vivo; details: 40 μg/kg bodyweight
Description: as §1, §2, §3, §4, §5

[4] = biological target: T1, beta-receptors of the heart (Felis catus, UniProt Q9TST6); test: Beta-adrenergic (chronotropic, heart frequency) effects on anesthetized cat pretreated with reserpine; type: in vivo; details: for ED50: iv, reserpinized anesthetized cat, i.v., estimated dose giving 50% of maximal effect, read-out: ED50 Heart Frequency; for potency relative to isoprenaline, chronotropic effect: isoprenaline = 1, cat i.v.
T1 construct: Heart frequency was registered with a cardiotachometer triggered by the ECG; from tissue; host or cells: heart of the anaesthetized cat in vivo (reserpine-pretreated, vagotomized)
Description: (§6) Chronotropic (heart frequency) and vasodilatating effects:
(§7) When the cats had been anaesthetized with Mebumal® 30 mg/kg bodyweight i.p., an artificial air respiration was started. The two vagus nerves were cut and the blood passing through a femoral artery was fed via a catheter and a pump back to the distal part of the vessel. Parallelly, a pressure transducer was connected by which the perfusion pressure was registered. At a perfusion with a constant flow, the perfusion pressure is directly proportional to the peripheral resistance of the vascular bed of the hind limb. Blood circulation in the foot was interrupted with a ligature. Heart frequency was registered with a cardiotachometer triggered by the ECG. The substances were administered intravenously in increasing doses and the dose-response curves of the heart frequency and the vasodilatation were constructed.
(§8) Further, the dose ratios (ED50 for vasodilatation/ED50 for heart frequency) are calculated. A dose ratio >1 indicates a heart selective effect.

[5] = test system: beta-receptors of the heart; test: as above; type: in vivo
Description: as §6, §7, §8

[6] = biological target: T2, beta-receptors of the blood vessels (Felis catus, UniProt Q9TST5); test: Vasodilatating effect (hind limb perfusion pressure) on anesthetized cat pretreated with reserpine; type: in vivo; details: iv; reserpinized anesthetized cat, i.v.; estimated dose giving 50% of maximal effect; read-out: ED50 Vasodilation
T2 construct: from tissue; host or cells: hind-limb vascular bed of the anaesthetized cat in vivo (constant-flow perfusion, reserpine-pretreated)
Description: as §6, §7, §8

heart [7] = test: Ventricular arrhythmia in dogs after two-stage ligation of the left anterior coronary artery (third day post infarction); type: in vivo, dog; details: 1-norepinephrine 20 μg/kg/min infusion, 120 minutes
Description: Harris, A. S. Delayed Development of Ventricular Ectopic Rhythms following Coronary Occlusion, Cir. l, p 1318, (1950) described a method of two-stage ligation of the left anterior coronary artery in the dog. This method produces a multifocal ventricular arrhythmia that generally remains persistent on the first post ligation day (day 1-24 hours post infarct). The arrhythmia slowly disappears, and by the third post-ligation day the animal has essentially a normal sinus rhythm.
Maling, H. M. and Moran, N. C., Ventricular Arrhythmias Induced by Sympathominetic Amines in Unanesthetized Dogs Following Coronary Artery Occlussion, Cir.
METHODS, MATERIALS AND EXPERIMENTAL DESIGN
Seventeen adult female beagle dogs were used. Their ages ranged from one to three years. These animals were divided into two groups.
The first group consisted of 12 dogs and served as a control group. All animals were subjected to a two-stage ligation of the left anterior coronary artery. On the first post operative day these twelve animals were given various experimental antiarrhythmic agents as part of a routine testing procedure. It should be noted that, due to the nature of these agents, there would be no test drug or only trace amounts of test drug in the blood on day 3, and these amounts would cause little or no change on the outcome of a third day test. It should also be noted that all twelve of these animals has at least 85% ventricular ectopic beats on the morning after surgery in order to be accepted for testing.
On the third day post infarction the dogs were suspended in a standing position in a canvas sling. No anesthesia or sedation was used. ECGs were recorded as well as blood pressure. After a control period, an infusion of 20 μg/kg min. of 1-norepinephrine was begun using a Harvard infusion/withdrawal pump. This infusion lasted 120 minutes.
These five animals were all subjected to a two stage ligation of the anterior descending coronary artery. On day 1 and day 2 each dog was suspended in a canvas sling in the standing position and ECG, blood pressure, and other physiologic measurements were taken. […]

[8] = 20 minutes after administration, ouabain versus compound I
[9] = anesthetized dog, i.v. infusion
[10] = conscious dog, ouabain 30 μg/kg i.v.
[11] = dose ratio >1 indicates a heart selective effect

T1 sequence (Q9TST6 whole entry): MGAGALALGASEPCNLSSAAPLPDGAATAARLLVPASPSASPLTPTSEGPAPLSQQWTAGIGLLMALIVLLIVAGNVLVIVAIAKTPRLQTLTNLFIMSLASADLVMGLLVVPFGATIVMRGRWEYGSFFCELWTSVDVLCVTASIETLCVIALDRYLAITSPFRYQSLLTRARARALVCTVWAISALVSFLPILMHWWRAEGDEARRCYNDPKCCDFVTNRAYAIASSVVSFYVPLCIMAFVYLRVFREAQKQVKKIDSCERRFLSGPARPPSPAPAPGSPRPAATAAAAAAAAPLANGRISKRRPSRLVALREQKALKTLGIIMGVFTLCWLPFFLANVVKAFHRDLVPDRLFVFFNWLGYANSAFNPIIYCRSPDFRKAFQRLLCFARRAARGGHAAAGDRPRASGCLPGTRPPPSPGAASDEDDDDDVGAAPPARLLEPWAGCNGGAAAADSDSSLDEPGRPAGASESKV
T2 sequence (Q9TST5 whole entry, the tested form may be a part): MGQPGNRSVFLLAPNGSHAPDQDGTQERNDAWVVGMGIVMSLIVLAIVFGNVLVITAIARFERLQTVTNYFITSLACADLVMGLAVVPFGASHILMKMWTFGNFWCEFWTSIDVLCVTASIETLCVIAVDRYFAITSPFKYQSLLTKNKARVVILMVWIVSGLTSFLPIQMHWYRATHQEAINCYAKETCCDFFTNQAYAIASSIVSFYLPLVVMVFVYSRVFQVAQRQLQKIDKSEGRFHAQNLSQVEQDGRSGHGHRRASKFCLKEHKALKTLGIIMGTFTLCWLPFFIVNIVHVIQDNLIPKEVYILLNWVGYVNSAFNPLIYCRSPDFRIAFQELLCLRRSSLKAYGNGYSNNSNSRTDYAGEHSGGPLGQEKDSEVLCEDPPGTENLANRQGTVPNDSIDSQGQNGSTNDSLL

| SMILES | Enddiastolic volume (heart [1]; ouabain 30 μg/kg i.v.) [%] | Mean arterial blood pressure (heart [1]; ouabain 30 μg/kg i.v.) [mm Hg] | Peak aortic flow (heart [1]; ouabain 30 μg/kg i.v.) [%] | Stroke volume (heart [1]; ouabain 30 μg/kg i.v.) [%] | Mean ejection rate (heart [1]; ouabain 30 μg/kg i.v.) [%] | side effects (heart [1]; [10]) | Max. dF/dt (heart [1]; ouabain 30 μg/kg i.v.) [%] | ED50 [4] [mg/kg] | ED50 [6] [mg/kg] | potency relative to isoprenaline, chronotropic effect [4] | Selectivity: ED50 Vasodilatation / ED50 Heart Frequency [5, 11] | also measured |
| --- | --- | --- | --- | --- | --- | --- | --- | --- | --- | --- | --- | --- |
| CC(C)NCC(O)c1ccc(O)c(O)c1 (centres unmarked) [Isoprenaline, reference compound] | -2 | -10 | 19 |  |  |  |  |  |  |  |  | mean blood pressure (in words) (heart [1]; conscious dog, infusion): decreased the mean blood pressure; contractility / inotropic effect in conscious dog (in words) (heart [1]; i.v.): increased the contractility less than compounds I and II |
| C[C@@H]1O[C@@H](O[C@H]2C[C@@H](O)[C@]3(CO)[C@H]4[C@H](O)C[C@]5(C)[C@@H](C6=CC(=O)OC6)CC[C@]5(O)[C@@H]4CC[C@]3(O)C2)[C@H](O)[C@H](O)[C@H]1O [Ouabain, reference compound] | -2 | 10 | 12 | 5 | 10 | vomiting | 30 |  |  |  |  | increase of aortic blood pressure (heart [2]; 20 minutes after administration): about 10 mm Hg; doses giving approximately the same level of maximum dP/dt (lower pair) (heart [2]; [8]): ~20 μg/kg bodyweight; doses giving corresponding effect on maximum dP/dt (higher pair) (heart [2]; [8]): 40 μg/kg bodyweight; effect on maximum dP/dt (in words) (heart [2]; [9]): increased maximum dP/dt; onset of effect on maximum dP/dt (heart [2]; [9]): within a minute; reduction of effect on maximum dP/dt after 50 minutes (heart [2]; [9]): only partly reduced after 50 minutes; time to maximal effect on maximum dP/dt (heart [2]; [9]): about 20 minutes; experiments with RVR (heart [3]): more than 50%; heart frequency (in words) (heart [1]; [10]): expected decrease of the heart frequency; time of maximum response after i.v. administration (heart [1]; ouabain 30 μg/kg i.v.): about 50 minutes |
| CC(C)NCC(O)COc1ccc(OC(=O)C(C)(C)C)cc1 (centres unmarked) [IV, 1-isopropylamino-3-(p-pivaloyloxyphenoxy)-propanol-2] |  |  |  |  |  |  |  | 0.06 | > 1 |  |  | Selectivity: ED50 Vasodilatation / ED50 Heart Frequency ([5]; in vivo): > 15 |
| CC(C)NCC(O)COc1ccc(OC(=O)C(C)C)cc1 (centres unmarked) [II, 1-isopropylamino-3-(p-isobutyryloxyphenoxy)-propanol-2] | -8 | 0 | 19 | 5 | 11 | No side effect was observed | 34 | 0.006 | > 1 | about 1/100 | > 100 | time of maximum effect, oral (heart [1]; 100 μg/kg bodyweight orally): 30 min; oral effect (in words) (heart [1]; oral, 100 μg/kg bodyweight): comparable with those obtained after intravenous administration of 20 μg/kg bodyweight; positive inotropic effect compared with ouabain (in words) (heart [1]; versus relatively high dose of ouabain): comparable to the effect of the relatively high dose of ouabain |
| NC[C@H](O)c1ccc(O)c(O)c1 [norepinephrine, reference compound] |  |  |  |  |  |  |  |  |  |  |  | duration of substantially high incidence of ectopic activity (heart [7]): at least 90 minutes |
| CC(C)NCC(O)COc1ccc(OC(=O)c2ccccc2)cc1 (centres unmarked) [III, 1-isopropylamino-3-(p-benzoyloxyphenoxy)-propanol-2] |  |  |  |  |  |  |  | 0.01 | > 1 | about 1/100 | > 100 |  |
